The values that follow come from patent publication US20110183904A1, “METHODS AND COMPOSITIONS FOR ALTERING BEHAVIOR ASSOCIATED WITH AUTISM SPECTRUM DISORDER” (The Children's Mercy Hospital, priority 2008, published 2011).

Test [1] deals with Gαs and Gαq protein in PBMCs. Kind of test: G-protein expression (Gαs and Gαq) in PBMCs exposed to oxytocin (immunoblot). It counts as cell-based, human. On the procedure: Membrane preparation for membrane-associated proteins. For protein studies, PBMC's were manipulated at 4° C., as previously described in Example 4. PBMC's were individually homogenized (1:30, wt/vol) in ice-cold 0.25 M sucrose and 50 mM Tris-HCL, (pH 7.6) in a Dounce homogenizer, centrifuged twice at 800×g for 5 min before centrifugation of the supernatants at 30,000×g for 60 min. The pellet was resuspended in assay buffer and used directly in the binding assay. Protein concentration was determined by BCA protein assay kit (Pierce, Rockford, Ill.) using bovine serum albumin (BSA) as a standard.
Immunoblot analysis for membrane-associated proteins. Total membrane proteins were prepared as for receptor assays above. Samples were electrophoresed in 12% Tris-HCl resolving gels and transferred to 0.45 μm nitrocellulose membranes (Bio-Rad, Hercules, Calif.) by electroblotting. […] After three washes in TBST, membranes were incubated for 1 h in TBST and 1% non fat dry milk with horseradish peroxidase conjugated 2° antibodies (Jackson Immunoresearch, West Grove, Pa.). Bands were visualized by exposure of the membranes to autoradiographic film (MidSci, St. Louis, Mo.). The membranes were then stripped with Restore™ Western Blot Stripping Buffer (Pierce, Rockford Ill.) for 30 min at 37° C. and reprobed for actin protein as an internal control. The bands were quantified using a densitometer (GE Healthcare, Piscataway, N.J.).
Specific G protein antibodies. Specific Gαs and Gαq/11 antibodies made in rabbit without cross reactivity to other G proteins were used at a 1:500 dilution and originated from Santa Cruz Biotechnology (Santa Cruz, Calif.).
In general terms: A western blot detects proteins with antibodies after separation by electrophoresis.

The subject of test [2] is Gαs mRNA in PBMCs. Kind of test: Gαs mRNA in PBMCs co-cultured with OT. Format: cell-based, human. The protocol: (§1) Both Gαs and Gαq mRNA were measured after PBMCs were incubated with vehicle (untreated condition) and after co-culture with hormone. For some subjects, the PBMC quantity yielded insufficient mRNA for PCR analysis. Gαs PCR was completed on 10 ASD girls, 9 control girls, 10 ASD boys, and 9 control boys. Gαq PCR was completed on 10 ASD girls, 8 control girls, 10 ASD boys, and 9 control boys.
(§2) Samples were taken from the patients, as described in Example 1, and mRNA was isolated from cells exposed to oxytocin and analyzed for amount of mRNA expressing Gαs and Gαq.
(§3) PBMC isolation, hormone treatment and cell culture. PBMCs were isolated from heparinized blood using Histopaque 1077 (Sigma-Aldrich, St. Louis, Mo.). Briefly, 5 ml of blood was diluted 1:1 in PBS and carefully layered onto 3 ml of Histopaque 1077 in a 50 ml conical centrifuge tube. Tubes were centrifuged at 400 g for 30 min at RT. The buffy coat was removed from the tube and washed three times in complete RPMI without phenol red. Cell counts and viability were determined using Trypan blue. Cell viability was >95%. […]
(§4) RNA isolation and quantitation. […] RNA was examined by spectrophotometry and quantitated using the Ribogreen assay (Invitrogen, Carlsbad, Calif.). […] Ribogreen reagent (1:200) was added to samples and standards, and samples were read on a Bio-Tek FLx800 fluorescent plate reader. […]

Test [3] has as its system Gαs mRNA and Gαq mRNA in PBMCs. Kind of test: G-protein mRNA (Gαs and Gαq) in PBMCs exposed to oxytocin. Format: cell-based, human. On the procedure: as §1, §2
PBMC isolation, hormone treatment and cell culture. PBMCs were isolated from heparinized blood using Histopaque 1077 (Sigma-Aldrich, St. Louis, Mo.). Briefly, 5 ml of blood was diluted 1:1 in PBS and carefully layered onto 3 ml of Histopaque 1077 in a 50 ml conical centrifuge tube. Tubes were centrifuged at 400 g for 30 min at RT. The buffy coat was removed from the tube and washed three times in complete RPMI without phenol red. Cell counts and viability were determined using Trypan blue. Cell viability was >95%. Resultant PBMC's were suspended in complete RPMI with 10% charcoal stripped, dilapidated fetal calf serum (FCS) (Invitrogen, Carlsbad, Calif.) and added in 1 ml aliquots to 12 well plate with vehicle and oxytocin (10 ^−7M, 10 ^−8M, and 10^−9M) in RPMI+10% charcoal stripped, dilapidated FCS. Cells were incubated overnight (18-24 hr) before wells were harvested and rinsed. Cell suspensions were centrifuged at 500 g for 10 min at RT, and supernatant was aspirated. Buffer RLT Plus from the RNeasy Mini Plus Kit (QIAgen, Valencia, Calif.) was added to the cell pellets before vortexing to lyse cells. Samples were stored at −80° C. before RNA purification and isolation.
RNA isolation and quantitation. Samples were thawed, vortexed, and placed in QIAshredder columns. Columns were centrifuged for 2 min at 15000 g. The homogenized lysate was transferred to a gDNA Eliminator spin column and centrifuged for 30 sec at 9000 g. Equal volumes of 70% ethanol were added to the eluent. The mixture was transferred to RNeasy spin columns and centrifuged for 15 sec at 9000 g. Columns were washed with Buffer RW1 and the Buffer RPE, centrifuging for 15 sec at 9000 g, each time discarding the eluent. Buffer RPE was again added and columns centrifuged for 2 min at 9000 g to dry the column. Columns were then centrifuged for 1 min at 15000 g. RNA was eluted with the addition of Nuclease-free water and spun for 1 min at 9000 g. RNA was examined by spectrophotometry and quantitated using the Ribogreen assay (Invitrogen, Carlsbad, Calif.). Samples were diluted 1:200. Standards of 0, 20, 100, 500, and 1000 ng/ml were made from E. coli ribosomal RNA in TE buffer. Ribogreen reagent (1:200) was added to samples and standards, and samples were read on a Bio-Tek FLx800 fluorescent plate reader. RNA was diluted in nuclease-free water to a final concentration of 150 ng/ml cDNA.
cDNA construction and one-step real-time RT-PCR. Reverse transcription was performed using the SuperScript II Reverse Transcription Kit (Invitrogen, Carlsbad, Calif.). First, any residual DNA was digested away with DNase I for 15 min, with DNase activity subsequently quenched with 25 mM EDTA at 65° C. for 15 min. 10 mM dNTP and 0.5 ug/ml oligo (dT) were added to DNase-treated samples at 65° C. for 5 min. […]

The subject of test [4] is adults with ASD. Conditions: cited from earlier work.
Test [5] relates to Gαs in murine spleen cells. The test can be described thus: Gαs expression in murine spleen cells exposed to OT (previous findings in this lab). The settings on record: both sexes. It counts as cell-based.
For test [6], the system named is Gαq mRNA in PBMCs. Kind of test: Gαq mRNA in PBMCs co-cultured with OT. It counts as cell-based, human. The protocol: as §1, §2, §3, §4
The subject of test [7] is male university students. The settings on record: intra-nasally; cited from earlier work.
[8] abbreviates: children with ASD versus controls.

Entries after “also recorded” stand apart in the source; their conditions may differ.

Take `CC[C@H](C)[C@@H]1NC(=O)[C@H](Cc2ccc(O)cc2)NC(=O)[C@@H](N)CSSC[C@@H](C(=O)N2CCC[C@H]2C(=O)N[C@@H](CC(C)C)C(=O)NCC(N)=O)NC(=O)[C@H](CC(N)=O)NC(=O)[C@H](CCC(N)=O)NC1=O` [OT, Oxytocin]: the “protein expression after exposure to oxytocin” value in test [1] (children with autism) is listed as “not seen”; in test [1] (females with autism), “upward trend”; in test [1] (males with autism) it was “not observed”; in test [1] (non-autistic patients), “went up”. The “difference in Gαs mRNA expression between ASD and control PBMCs upon exposure to OT” value in test [2] (setting [8]) is reported as “no longer observed; also recorded: did not have the significantly increased Gαs mRNA”. The “sex differences in Gαs expression with OT exposure” value in test [2] (girls versus boys, any group) was “not augmented”. The “mRNA pattern after exposure to oxytocin” value in test [3] (autistic males, compared with control females before exposure) was “more feminine pattern”. The “mRNA levels after exposure to oxytocin” value in test [3] (children with autism) was “not seen”; in test [3] (females with autism) it was “upward trend”; in test [3] (males with autism), “not observed”; in test [3] (non-autistic patients) it was “went up”. Besides, in test [4] (OT infusion), the affective speech comprehension result was “improved”. The “severity and number of different types of repetitive behaviors” value in test [4] (intravenous OT infusion) is on record as “decreased”. The “Gαs expression with exposure to OT” value in test [5] is “c. Previous findings in this lab had found sex differences in Gαs in murine spleen cells as well as induction of Gαs expression in both sexes with exposure to OT,”. Further, the “difference in Gαq mRNA expression between ASD and control PBMCs upon exposure to OT” value in test [6] (setting [8]) is “no longer significant”. Also, the “sex differences in Gαq mRNA expression with OT” value in test [6] (girls versus boys) is “not augmented”. Further, in test [7], the “trust and prosocial behavior” value was “might increase trust and prosocial behavior”.
